Reference: US9708314B2, “Heterocyclic amide compound” (NISSAN CHEMICAL INDUSTRIES, LTD., priority 2013, dated 2017)

Assays:
Format in all cases: in vivo
Cyperus difformis = test: Test Example 3: herbicidal effect by application to foliage (Wagner pot, water depth 0.1-0.5 cm); conditions: Nineteenth Table; application to foliage; application herbicide amount 320 g/ha
In short: (§1)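 Alluvial soil in 1/10000 are Wagner pots, sown and grown 14 days in a 25–30 °C greenhouse. An emulsifiable concentrate diluted in water to the set dose (g/ha) was sprayed on stems and leaves. Effect scored three weeks later on a 0–5 scale: 5 = ≥90% herbicidal ratio, 0 = ≤5%.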

[1] = test system: Echinochloa crus-galli var. crus-galli; test: as above; conditions: Nineteenth Table; application to foliage; application herbicide amount 320 g/ha
In short: as §1

Leptochloa chinensis = test: as above; conditions: Nineteenth Table; application to foliage; application herbicide amount 320 g/ha
In short: as §1

[2] = test system: directly sowed Oryza sativa; test: Test Example 3: effect on crop by application to foliage (Wagner pot, water depth 0.1-0.5 cm); conditions: Nineteenth Table; application to foliage; application herbicide amount 320 g/ha
In short: as §1

Abutilon theophrasti = test: Test Example 4: herbicidal effect by application to foliage (diluvial soil, plastic box); conditions: foliage application
In short: (§2)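 Scores run from 0 (herbicidal ratio ≤5%) to 5 (≥90%, almost fully withered) and were assessed three weeks after foliar spraying. Seedlings had been raised for 14 days at 25-30° C in sterilized diluvial soil before treatment, with the emulsion diluted in water to the stated g/ha dose.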

Alopecurus myosuroides = test: as above; conditions: foliage application
In short: as §2

Amaranthus retroflexus = test: as above; conditions: foliage application
In short: as §2

Apera spica-venti. = test: as above; conditions: foliage application
In short: as §2

Avena fatua = test: as above; conditions: foliage application
In short: as §2

Chenopodium album = test: as above; conditions: foliage application
In short: as §2

Digitaria ciliaris = test: as above; conditions: foliage application
In short: as §2

[3] = test system: Echinochloa crus-galli var. crus-galli; test: as above; conditions: foliage application
In short: as §2

Galium spurium = test: as above; conditions: foliage application
In short: as §2

Lolium multiflorum Lam. = test: as above; conditions: foliage application
In short: as §2

Setaria viridis = test: as above; conditions: foliage application
In short: as §2

Stellaria media = test: as above; conditions: foliage application
In short: as §2

Veronica persica = test: as above; conditions: foliage application
In short: as §2

[4] = test system: Beta vulgaris ssp. vulgaris; test: Test Example 4: effect on crop by application to foliage (diluvial soil, plastic box); conditions: foliage application
In short: as §2

Brassica campestris L. = test: as above; conditions: foliage application
In short: as §2

Glycine max = test: as above; conditions: foliage application
In short: as §2

Triticum aestivum = test: as above; conditions: foliage application
In short: as §2

Zea mays = test: as above; conditions: foliage application
In short: as §2

[5] = test system: directly sowed Oryza sativa; test: as above; conditions: foliage application
In short: as §2

[6] = Application herbicide amount 320 g/ha

Cc1nnc(NC(=O)c2ccc(C(F)(F)F)n3c(SCC#N)nnc23)o1 [1-117]
E (herbicidal effect grade) (Cyperus difformis): 2 (Herbicidal ratio of 20% or more and less than 40%) | H (herbicidal effect grade) [1]: 4 (Herbicidal ratio of 70% or more and less than 90%) | D (herbicidal effect grade) (Leptochloa chinensis): 4 (Herbicidal ratio of 70% or more and less than 90%) | b (effect on crop grade) [2]: 0 (Herbicidal ratio of 5% or less (almost no effect)) | M (Abutilon theophrasti) herbicidal effect grade (Abutilon theophrasti; [6]): 3 (Herbicidal ratio of 40% or more and less than 70%) | J (Alopecurus myosuroides) herbicidal effect grade (Alopecurus myosuroides; [6]): 0 (Herbicidal ratio of 5% or less (almost no effect)) | N (Amaranthus retroflexus) herbicidal effect grade (Amaranthus retroflexus; [6]): 3 (Herbicidal ratio of 40% or more and less than 70%) | L (Apera spica-venti.) herbicidal effect grade (Apera spica-venti.; [6]): 0 (Herbicidal ratio of 5% or less (almost no effect)) | I (Avena fatua) herbicidal effect grade (Avena fatua; [6]): 0 (Herbicidal ratio of 5% or less (almost no effect)) | O (Chenopodium album) herbicidal effect grade (Chenopodium album; [6]): 5 (Herbicidal ratio of 90% or more (almost completely withered)) | F (Digitaria ciliaris) herbicidal effect grade (Digitaria ciliaris; [6]): 1 (Herbicidal ratio of 5% or more and less than 20%) | H (Echinochloa crus-galli var. crus-galli) herbicidal effect grade [3, 6]: 4 (Herbicidal ratio of 70% or more and less than 90%) | Q (Galium spurium) herbicidal effect grade (Galium spurium; [6]): 1 (Herbicidal ratio of 5% or more and less than 20%) | K (Lolium multiflorum Lam.) herbicidal effect grade (Lolium multiflorum Lam.; [6]): 0 (Herbicidal ratio of 5% or less (almost no effect)) | G (Setaria viridis) herbicidal effect grade (Setaria viridis; [6]): 1 (Herbicidal ratio of 5% or more and less than 20%) | P (Stellaria media) herbicidal effect grade (Stellaria media; [6]): 3 (Herbicidal ratio of 40% or more and less than 70%) | R (Veronica persica) herbicidal effect grade (Veronica persica; [6]): 3 (Herbicidal ratio of 40% or more and less than 70%) | f (Beta vulgaris ssp. vulgaris) effect on crop grade [4, 6]: 3 (Herbicidal ratio of 40% or more and less than 70%) | g (Brassica campestris L.) effect on crop grade (Brassica campestris L.; [6]): 1 (Herbicidal ratio of 5% or more and less than 20%) | d (Glycine max) effect on crop grade (Glycine max; [6]): 3 (Herbicidal ratio of 40% or more and less than 70%) | e (Triticum aestivum) effect on crop grade (Triticum aestivum; [6]): 0 (Herbicidal ratio of 5% or less (almost no effect)) | c (Zea mays) effect on crop grade (Zea mays; [6]): 0 (Herbicidal ratio of 5% or less (almost no effect)) | b (directly sowed Oryza sativa) effect on crop grade [5, 6]: 0 (Herbicidal ratio of 5% or less (almost no effect))

Cn1nnnc1NC(=O)c1ccc(C(F)(F)F)n2c(CS(=O)(=O)CC(F)(F)F)nnc12 [2-036]
E (herbicidal effect grade) (Cyperus difformis): 4 (Herbicidal ratio of 70% or more and less than 90%) | H (herbicidal effect grade) [1]: 4 (Herbicidal ratio of 70% or more and less than 90%) | D (herbicidal effect grade) (Leptochloa chinensis): 5 (Herbicidal ratio of 90% or more (almost completely withered)) | b (effect on crop grade) [2]: 1 (Herbicidal ratio of 5% or more and less than 20%) | M (Abutilon theophrasti) herbicidal effect grade (Abutilon theophrasti; 320 g/ha): 5 (Herbicidal ratio of 90% or more (almost completely withered)) | J (Alopecurus myosuroides) herbicidal effect grade (Alopecurus myosuroides; 320 g/ha): 0 (Herbicidal ratio of 5% or less (almost no effect)) | N (Amaranthus retroflexus) herbicidal effect grade (Amaranthus retroflexus; 320 g/ha): 5 (Herbicidal ratio of 90% or more (almost completely withered)) | L (Apera spica-venti.) herbicidal effect grade (Apera spica-venti.; 320 g/ha): 3 (Herbicidal ratio of 40% or more and less than 70%) | I (Avena fatua) herbicidal effect grade (Avena fatua; 320 g/ha): 1 (Herbicidal ratio of 5% or more and less than 20%) | O (Chenopodium album) herbicidal effect grade (Chenopodium album; 320 g/ha): 5 (Herbicidal ratio of 90% or more (almost completely withered)) | F (Digitaria ciliaris) herbicidal effect grade (Digitaria ciliaris; 320 g/ha): 5 (Herbicidal ratio of 90% or more (almost completely withered)) | H (Echinochloa crus-galli var. crus-galli) herbicidal effect grade ([3]; 320 g/ha): 5 (Herbicidal ratio of 90% or more (almost completely withered)) | Q (Galium spurium) herbicidal effect grade (Galium spurium; 320 g/ha): 4 (Herbicidal ratio of 70% or more and less than 90%) | K (Lolium multiflorum Lam.) herbicidal effect grade (Lolium multiflorum Lam.; 320 g/ha): 0 (Herbicidal ratio of 5% or less (almost no effect)) | G (Setaria viridis) herbicidal effect grade (Setaria viridis; 320 g/ha): 4 (Herbicidal ratio of 70% or more and less than 90%) | P (Stellaria media) herbicidal effect grade (Stellaria media; 320 g/ha): 5 (Herbicidal ratio of 90% or more (almost completely withered)) | R (Veronica persica) herbicidal effect grade (Veronica persica; 320 g/ha): 4 (Herbicidal ratio of 70% or more and less than 90%) | f (Beta vulgaris ssp. vulgaris) effect on crop grade ([4]; 320 g/ha): 5 (Herbicidal ratio of 90% or more (almost completely withered)) | g (Brassica campestris L.) effect on crop grade (Brassica campestris L.; 320 g/ha): 3 (Herbicidal ratio of 40% or more and less than 70%) | c (Glycine max) effect on crop grade (Glycine max; 320 g/ha): 0 (Herbicidal ratio of 5% or less (almost no effect)) | e (Triticum aestivum) effect on crop grade (Triticum aestivum; 320 g/ha): 0 (Herbicidal ratio of 5% or less (almost no effect)) | b (Zea mays) effect on crop grade (Zea mays; 320 g/ha): 0 (Herbicidal ratio of 5% or less (almost no effect)) | d (directly sowed Oryza sativa) effect on crop grade ([5]; 320 g/ha): 2 (Herbicidal ratio of 20% or more and less than 40%)
